Test results from patent US20130005802A1, “TREATMENT OF WNT/FRIZZLED-RELATED DISEASES” (priority 2009, published 2013).
Like-named read-outs stand apart in the source and are kept apart here.

Tests used:
CaCO2 cells = test: MTT assay, CaCO2; format: cell-based; conditions: for IC50: Homo sapiens, Caco-2, 72 h
Description: (§1) AsPC-1 tumor cells were cultured with T cells at a 1:5 ratio for 7 days in the presence of MEDI-565 or Cont BiTE (100 ng/mL). On day 7, floating cells were discarded and only adherent AsPC-1 cells were harvested with 0.05% trypsin/EDTA and washed with PBS three times. 1×10^4 AsPC-1 tumor cells were added to each well of 96 well flat bottom plates in 200 μL of complete RPMI1640 medium. The cells were allowed to adhere to the plates overnight at 37° C. (day 0) and were further incubated for 1, 2, 4 or 7 days. 20 μL of 10×MTT (3-[4,5-dimethylthiazol-2-yl]-2,5-diphenyl-tetrazolium bromide, 5 mg/mL) solution was added to each well, and incubated at 37° C. for 2 hr. The adherent cells were lysed with 150 μL of dimethyl sulfoxide (DMSO) and the optical density (OD) at 550 nm was measured.
(§2) Colorectal cancer cell lines were incubated in 96-well flat-bottomed plates at 5,000 cells per well in 200 μL of complete RPMI1640 medium. The cells were allowed to adhere to the plates overnight at 37° C. (day 0). […] Then 20 μL of 10×MTT solution was added to each well and incubated at 37° C. for 2 hr. The adherent cells were lysed with 150 μL of DMSO, and then optical density (OD) at 562 nm was measured. DMSO or culture medium was used as a control.
(§3) MTT assay was performed at each time point.
An MTT assay was performed after 72 hr incubation. After cell lysis with DMSO, the optical density (OD) at 562 nm was measured.

Frizzled1-GFP = Frizzled1-GFP (Rattus norvegicus, UniProt Q08463); test: Image-based Frizzled1-GFP internalization assay (primary screening assay) in Fzd1GFP-U2OS cells; format: cell-based; conditions: 6 hr, 0.47-7.5 μM tested
Description: To obtain a Frizzled1-GFP stable cell line (Fzd1GFP-U2OS), U2OS cells were transfected with pCS2ratFrizzled1-GFP and pLKO.1 (10:1 ratio by weight), using the Nucleofection transfection protocol from Amaxa, and stable receptor expressing clones were selected using 1.5 μg/mL puromycin in the culture medium. For generating TOPFlash stable cell lines, HEK293 cells were transfected with p8xTOPFlash, the Renilla luciferase plasmid, and pLKO.1 at a ratio by weight of 10:3:1 and stable clones selected using 1 μg/mL puromycin in the growth medium. pLKO.1 was used to confer puromycin resistance to the stable clones.
The plates were incubated overnight at 37° C. in 5% CO2. […]
To measure the number of the internalized vesicles per cell, cytosol was carefully traced to exclude cell membrane. […] The number of internalized vesicles per cell was counted by the Metamorph software. More than 30 cells per sample were analyzed to obtain statistical significance. […]
To determine the time-course of internalization for Frizzled1-GFP receptors, the accumulation of cytosolic puncta/vesicles was measured (FIG. 4A-4E). Internalization was assessed by counting the number of Frizzled1-GFP containing vesicles in the cytosol using the computer program Metamorph, and the results are presented in the graph for the given times (0 hr, n=51 cells; 1 hr, n=69; 2 hr, n=32; 4 hr, n=55, and 6 hr, n=61). […]

HCT116 tumors = test: In vivo anti-tumor effect, HCT116 tumors; set-up: species or system NOD/SCID mice
Description: (§4) HCT116 colon cancer cells were harvested from flasks with 0.05% Trypsin/EDTA, washed with PBS, and resuspended with Hanks buffered solution at 5×10^6 cells/100 μL concentration. CRC explants (CRC039) cultured in vitro were harvested with the same procedure, and mixed with equal volume of Matrigel to make 1×10^6 cells/100 μL concentration. A hundred μL of cell suspension was inoculated to the flank of NOD/SCID mice 4 days before the start of treatment. […] Tumor size was measured 3 times a week until mice were sacrificed.
(§5) HCT116 colon cancer cells were harvested from flasks with 0.05% Trypsin/EDTA and resuspended with Hanks buffered solution at 5×10^6 cells/100 μL concentration. CRC explants (CRC039) cultured in vitro were harvested with the same procedure and mixed with equal volume of Matrigel to make 1×10^6 cells/100 μL concentration. The cell suspension (100 μL) was inoculated into the flank of NOD/SCID mice 4 days before the start of treatment. […] Initially, 2 weeks of treatment was planned for both HCT116 and CRC039. However, treatment was extended to 3 weeks for CRC039 cells because the […] grew much slower than the HCT116 cell line. Tumor size was measured 3 times a week until mice were euthanized.

CRC039 tumors = test: In vivo anti-tumor effect, CRC039 explant tumors; set-up: species or system NOD/SCID mice; conditions: 10, 100 or 200 mg/kg gavage, 6 days per week, 3 weeks
Description: as §4, §5

HT29 cells = test: MTT assay, HT29; format: cell-based
Description: as §1, §2, §3

[1] = Side effects during in vivo treatment; set-up: species or system NOD/SCID mice; conditions: up to 200 mg/kg gavage, 2-3 weeks
Description: as §5

Dishevelled-2 = test: Immunoblot of endogenous cytosolic Dishevelled-2 in U2OS cells; format: cell-based; conditions: 1-7.5 μM, read-out: half maximal reduction of Dishevelled-2
From the text: After treatment, cytosolic fraction as well as cellular membrane were isolated as described (Mikels, A. J., et al. PLoS Biol 2006, 4, e115, incorporated herein by reference in its entirety). Immunoblots using β-catenin or Dishevelled-2 antibody were used to detect the respective protein levels in cytosol or on membrane, with β-actin immunoblots used for loading controls.
Dishevelled proteins (Dishevelled-1, 2, and 3 in mammalian cells) are intracellular molecules transducing Frizzled signaling.

Frizzled1-GFP, sequence (Q08463 69-641): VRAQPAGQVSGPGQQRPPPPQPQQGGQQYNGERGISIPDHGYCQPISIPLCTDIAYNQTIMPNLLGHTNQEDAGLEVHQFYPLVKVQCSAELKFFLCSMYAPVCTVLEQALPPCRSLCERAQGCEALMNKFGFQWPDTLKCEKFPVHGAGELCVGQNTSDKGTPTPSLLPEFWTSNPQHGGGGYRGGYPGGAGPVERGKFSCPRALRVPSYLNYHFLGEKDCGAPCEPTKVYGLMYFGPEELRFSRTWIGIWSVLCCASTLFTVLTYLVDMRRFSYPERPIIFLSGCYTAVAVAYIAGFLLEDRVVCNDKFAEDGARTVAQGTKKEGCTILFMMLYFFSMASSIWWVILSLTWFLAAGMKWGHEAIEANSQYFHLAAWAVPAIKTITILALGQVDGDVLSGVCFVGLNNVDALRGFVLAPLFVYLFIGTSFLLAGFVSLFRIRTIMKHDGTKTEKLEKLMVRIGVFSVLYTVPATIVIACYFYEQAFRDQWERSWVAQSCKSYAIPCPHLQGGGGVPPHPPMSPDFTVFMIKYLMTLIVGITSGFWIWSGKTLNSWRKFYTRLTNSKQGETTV

O=C(Nc1ccc([N+](=O)[O-])cc1Cl)c1cc(Cl)ccc1O [niclosamide]
cytotoxic effect compared with 10 μM oxaliplatin (CaCO2 cells; 2 μM, 72 hr): stronger cytotoxic effect | proliferation (MTT, OD 562 nm) (CaCO2 cells; 0.4, 2, 10 μM, 72 hr): less proliferation | % proliferation over time (CaCO2 cells; 0.4, 2, 10 μM, 24-96 hr): sensitive | IC50 (CaCO2 cells; read-out: IC50 of niclosamide (MTT)): 1000 nM | IC50 (CaCO2 cells; read-out: IC50 of niclosamide (MTT) with oxaliplatin): 500 nM | concentration with significant increase in the number of internalized receptors (Frizzled1-GFP): 1 to 2 µM | tumor volume vs control (HCT116 tumors; 200 mg/kg gavage, after two weeks): less than half a volume | tumor growth (HCT116 tumors; 10, 100 or 200 mg/kg gavage, 6 days per week, 2 weeks): significantly inhibited the growth | tumor growth (CRC039 tumors): significantly inhibited the growth | concentration showing anti-proliferation effect (HT29 cells; 0.4, 2, 10 μM tested, 72 hr): 10 µM | % proliferation over time (HT29 cells; 0.4, 2, 10 μM, 24-96 hr): insensitive | side effects during treatment [1]: no obvious side effect | IC50 (Dishevelled-2): ~1000 nM
